From US5461154A, “Intermediate and process for making” (Eli Lilly and Company, priority 1994, dated 1995) come the findings set out here.

pIC50: −log10 of the molar value.

In one experiment the target is T1, HIV-1 protease (Human immunodeficiency virus type 1 group M subtype B, UniProt P04585).
T1 construct: Purified HIV-1 protease was obtained as described above; made in house; host or cells: E. coli K12 L507/pHP10D (NRRL B-18560)
As to the kind of experiment: biochemical.
Settings: not given
Here is the method:
A culture of E. coli K12 L507/pHP10D was grown to mid-log phase at 32° C. in LB media containing 12.5 μg/mL tetracycline. The cultivation temperature was quickly elevated to 40° C. to induce gene expression, and the cells were allowed to grow for 2.5 hours at this temperature before the culture was quickly chilled on ice. The cells were centrifuged and the cell pellet was resuspended in 20 mL of 50 mmol MES buffer (pH 6.0) containing 1 mmol EDTA, 1 mmol DTT, 1 mmol PMSF and 10% glycerol ("Buffer A"). Cells were lysed by sonication using a Fischer Model 300 Dismembrator and a microtip probe. Following centrifugation at 27,000×g, the supernatant was diluted to a total volume of 60 mL with Buffer A and loaded onto a 2.0×19 cm QAE-Sepharose column (1 mL/min, 4° C.), that had been equilibrated in Buffer A. The column was washed isocratically for 180 min and then eluted with a gradient eluent of 0-1.0M aqueous sodium chloride in Buffer A over 120 min. Enzymatic activity was measured by HPLC using the synthetic peptide Ser-Gln-Asn-Tyr-Pro-Ile-Val as described in Margolin et al., Biochem. Biophys. Res. Common., 167, 554-560 (1990); the production of the p1 peptide (Ser-Gln-Asn-Tyr) was measured.
The active fractions were combined, adjusted to […] 1.2M in ammonium sulfate, and applied to a 2.0×18 cm hexyl agarose column that had been equilibrated in Buffer A containing 1.2M ammonium sulfate. The sample was loaded at a flow rate of 1 mL/min at 4° C., washed with the equilibration buffer for 240 min (1 mL/min) and then eluted using a reverse linear gradient of 1.2-0M ammonium sulfate in Buffer A for 120 min at the same flow rate. The column was then washed isocratically in Buffer A for 120 min.
The active fractions were combined, concentrated to 10 mL using an Amicon stirred cell with a YM-10 membrane and then applied to a MonoS cation exchange column (1.0×10 cm) that had been equilibrated in Buffer A. The sample was loaded at a flow rate of 1 mL/min at 25° C. After washing isocratically for 30 min, the protease was eluted using a linear gradient of 0-0.45M aqueous sodium chloride in Buffer A over 40 min. The column was washed isocratically in Buffer A containing 0.45M aqueous sodium chloride for 30 minutes.
The active fractions were combined and concentrated to 200 μL using an Amicon stirred cell and a YM-10 membrane and then the protease was applied to a Superose 6 size exclusion column equilibrated in Buffer A containing 0.1M aqueous sodium chloride.
E. Fluorescence HIV-1 Protease Inhibitor Assay
The following buffers and solutions are used in the Fluorescence HIV-1 Protease Inhibitor Assay:
To each well of a round bottom, 96-well plate is added 20 μL of the Enzyme Solution followed by 10 μL of the compound to be evaluated in a 20% aqueous dimethylsulfoxide solution. Purified HIV-1 protease was obtained as described above. The resulting solution is incubated for one hour at room temperature and then 20 μL of a solution containing the substrate, prepared above, in MES-ALB buffer (1.5 μL/mL) is added to each well. The solutions are then incubated for 16 hours at room temperature and then each well is diluted with 150 μL of MES-ALB buffer.
To each well of a second round bottom, 96-well Pandex plate is added 25 uL of the Avidin Coated Beads Solution. Then, to each well is added 25 μL of the diluted incubation solutions, prepared above. The solutions are mixed thoroughly and the plates are loaded into a Pandex® machine, washed, evacuated and read. Sample detection was performed by excitation at 485 nm, reading the resulting epifluorescence at 535 nm.
In turn, `Cc1c(O)cccc1C(=O)N[C@@H](Cc1ccccc1)[C@H](O)CN1CCC[C@H]1C(=O)NC(C)(C)C` [Example 4, [2S-(2R*,2'S*,3'R*)]-1-[2'-Hydroxy-3'-phenylmethyl-4'-aza-5'-oxo-5'-(2"-methyl-3"-hydroxyphenyl)pentyl]pyrrolidine-2-N-t-butylcarboxamide] gave a negative-log IC50 (pIC50) of 5.52.

`Cc1c(O)cccc1C(=O)N[C@@H](Cc1ccccc1)[C@H](O)CN1CCCC[C@H]1C(=O)NC(C)(C)C` [Example 6, [2S-(2R*,2'S*,3'R*)]-1-[2'-Hydroxy-3'-phenylmethyl-4'-aza-5'-oxo-5'-(2"-methyl-3"-hydroxyphenyl)pentyl]piperidine-2-N-t-butylcarboxamide] gave a pIC50 of 5.97.

The experiment is the same for the next values; noted with them: read-out: Fluorescence Assay IC50 (converted).
Regarding `Cc1cnccc1C(=O)N[C@@H](CSc1ccccc1)[C@H](O)CN1CCN(Cc2cccnc2)C[C@H]1C(=O)NC(C)(C)C` [Example 35, [2S-(2R*,2'S*,3'S*)]-1-[2'-Hydroxy-3'-phenylthiomethyl-4'-aza-5'-oxo-5'-[3"-methyl-pyrid-4"-yl)]pentyl]-4-(pyrid-3'"-ylmethyl)piperazine-2-N-t-butylcarboxamide], the half-inhibitory concentration (IC50) is 0.0537 µM.

`CC(C)(C)NC(=O)[C@@H]1CN(Cc2cccnc2)CCN1C[C@@H](O)[C@H](CSc1ccccc1)NC(=O)c1cccc2ncccc12` [Example 34, [2S-(2R*,2'S*,3'S*)]-1-[2'-Hydroxy-3'-phenylthiomethyl-4'-aza-5'-oxo-5'-(quinolin-5"-yl)pentyl]-4-(pyrid-3'"-ylmethyl)piperazine-2-N-t-butylcarboxamide]: the IC50 was 0.00718 µM.

As to `CC(C)(C)NC(=O)[C@@H]1C[C@@H]2CCCC[C@@H]2CN1C[C@@H](O)[C@H](Cc1ccccc1)NC(=O)c1c(Cl)ccc(O)c1Cl` [Example 17, [3S-(3R*,4aR*,8aR*,2'S*,3'R*)]-2-[2'-Hydroxy-3'-phenylmethyl-4'-aza-5'-oxo-5'-(2",6"-dichloro-3"-hydroxyphenyl)pentyl]decahydroisoquinoline-3-N-t-butylcarboxamide], the IC50 was 0.455 µM.

Turning to `Cc1c(C(=O)N[C@@H](Cc2ccccc2)[C@H](O)CN2C[C@H]3CCCC[C@H]3C[C@H]2C(=O)NC(C)(C)C)cc[nH]c1=O` [Example 16, [3S-(3R*,4aR*,8aR*,2'S*,3'R*)]-2-[2'-Hydroxy-3-phenylmethyl-4'-aza-5'-oxo-5'-(2"-oxo-3"-methyl-pyrid-4"-yl)pentyl]decahydroisoquinoline-3-N-t-butylcarboxamide], the IC50 was 0.613 µM.

Consider `CC(C)(C)NC(=O)[C@@H]1C[C@@H]2CCCC[C@@H]2CN1C[C@@H](O)[C@H](Cc1ccccc1)NC(=O)c1cccc(Cl)c1Cl` [Example 14, [3S-(3R*,4aR*,8aR*,2'S*,3R*)]-2-[2'-Hydroxy-3'-phenylmethyl-4'-aza-5'-oxo-5'-(2",3"-dichlorophenyl)pentyl]decahydroisoquinoline-3-N-t-butylcarboxamide], for which the IC50 is 0.176 µM.

Regarding `Cc1ccc2ncccc2c1C(=O)N[C@@H](CSc1ccccc1)[C@H](O)CN1C[C@H]2CCCC[C@H]2C[C@H]1C(=O)NC(C)(C)C` [Example 38], the IC50 is 0.0252 µM.

Staying with this experiment, now noted: read-out: Fluorescence Assay IC50; […]; room temperature, 16 hours with substrate.
Take `Cc1c(NS(C)(=O)=O)cccc1C(=O)N[C@@H](Cc1ccccc1)[C@H](O)CN1C[C@H]2CCCC[C@H]2C[C@H]1C(=O)NC(C)(C)C` [Example 36, [3S-(3R*,4aR*,8aR*,2'S*,3'S*)]-2-[2'-Hydroxy-3'-phenylmethyl-4'-aza-5'-oxo-5'-[2"-methyl-3"-N-(methylsulfonyl)amino-phenyl)]pentyl]decahydroisoquinoline-3-N-t-butylcarboxamide]: the pIC50 is 6.99.

As usually defined, the pIC50 is the negative decadic logarithm of the IC50, by convention in mol/L. One may read the IC50 as the concentration that inhibits the measured activity by half.
